Measurements: patent US6544989B2, “Benzazoles: benzoxazole, benzthiazole and benzimidazole derivatives” (Syngenta Limited, priority 1998, dated 2003)

Key:
Puccinia recondita = test: Fungicidal test, Puccinia recondita (PUCCRT) on wheat, PRCO; format: in vivo; conditions: METHOD 2 (unbanded)
Pyricularia oryzae = format: in vivo; conditions: METHOD 2 (unbanded)
Venturia inaequalis = test: Fungicidal test, Venturia inaequalis (VENTIN) on apples, PRCO; format: in vivo; conditions: METHOD 2 (unbanded)
[1] = tested on: Erysiphe graminis f.sp. tritici; test: Fungicidal test, Erysiphe graminis f.sp. tritici (ERYSGT) on wheat, PRCO; format: in vivo; conditions: 1 d Prot/Foir; METHOD 2 (unbanded)
Plasmopara viticola = test: Fungicidal test, Plasmopara viticola (PLASVI) on vines, PRCO; format: in vivo; conditions: METHOD 2 (unbanded)
Uncinula necator = test: Fungicidal test, Uncinula necator (UNCINE) on vines, PRCO; format: in vivo; conditions: METHOD 2 (unbanded)
Meloidogyne incognita = test: Nematode test, J2 infective juveniles of Meloidogyne incognita, mortality; conditions: 12.5 ppm; J2 infective juveniles suspended in solution; mortality after three days
Method: (§1) The activities of individual compounds of formula (I) were determined using a variety of pests. With the exception of nematodes, the pests were treated with a liquid composition containing 500 parts per million (ppm) by weight of a compound unless otherwise stated. Each composition was made by dissolving the compound in an acetone and ethanol (50:50 by volume) mixture and diluting the solution with water containing 0.05% by volume of a wetting agent, SYNPERONIC NP8, until the liquid composition contained the required concentration of the compound.
The test procedure for nematodes involved dissolving the compound in an acetone and ethanol (50:50 by volume) mixture and diluting the solution with water to obtain a final concentration of the compound of 12.5 ppm. J2 infective juveniles of Meloidogyne incognita were suspended in the solution in a glass vial and mortality assessed after a period of three days.

Musca domestica = conditions: 500 ppm by weight; knockdown assessed 15 minutes after treatment
Method: as §1
The test procedure adopted with regard to each pest, except nematodes, was essentially the same and composed supporting a number of the pests on a medium which was usually a substrate, a host plant or a foodstuff on which the pests feed, and treating either or both the medium and the pests with a composition. Pest mortality was assessed usually between three and five days after treatment Knockdown of housefly (Musca domestica) was assessed 15 minutes after treatment

[2] = tested on: Phytophthora infestans lycopersici; format: in vivo; conditions: METHOD 2 (unbanded)
Rhizoctonia solani = test: Fungicidal test, Rhizoctonia solani (RHIZSO) on rice, PRCO; format: in vivo; conditions: METHOD 2 (unbanded)
Septoria nodorum = test: Fungicidal test, Septoria nodorum (LEPTNO) on wheat, PRCO; format: in vivo; conditions: METHOD 2 (unbanded)

Row | SMILES | PUCCRT 1 d Prot/Foir PRCO (Puccinia recondita) | PYRIOR 1 d Prot/Foir PRCO (Pyricularia oryzae) | VENTIN 1 d Prot/Foir PRCO (Venturia inaequalis) | ERYSGT 1 d Prot/Foir PRCO [1] | PLASVI 1 d Prot/Foir PRCO (Plasmopara viticola) | UNCINE 1 d Prot/Foir PRCO (Uncinula necator) | MELGIN = Meloidogyne incognita, grading of mortality (score) (Meloidogyne incognita) | MUSCDO AC = Musca domestica (knockdown), score (Musca domestica) | PHYTIN 1 d Prot/Foir PRCO [2] | RHIZSO 1 d Prot/Foir PRCO (Rhizoctonia solani) | LEPTNO 1 d Prot/Foir PRCO (Septoria nodorum)
1 | Cc1nsc(NC(=O)Cc2ccc3ocnc3c2)c1Cl [1(A3)] | 59 | 91 | 25 | 88 | 6 | 43 | 5 (5 indicates 40-79% mortality) | 0 (0 indicates less than 40% mortality) | 100 | – | –
2 | Cc1nc2cc(CC(=O)Nc3snc(C)c3Cl)ccc2s1 [2(A13)] | 99 | 47 | – | 31 | – | 72 | 5 (5 indicates 40-79% mortality) | 0 (0 indicates less than 40% mortality) | 100 | 43 | 62
3 | CCCCc1nc2cc(CC(=O)Nc3snc(C)c3Cl)ccc2o1 [5(A3)] | 88 | 31 | −10 | 40 | 39 | 72 | 0 (0 indicates less than 40% mortality) | 0 (0 indicates less than 40% mortality) | 100 | – | 30
4 | CCN(C(=O)Cc1ccc2oc(CC(C)(C)C)nc2c1)c1snc(C)c1Cl [15(C3)] | 13 | 7 | 64 | 38 | – | 100 | 0 (0 indicates less than 40% mortality) | 9 (9 indicates 80-100% mortality) | 97 | – | 93
5 | CCCN(C(=O)Cc1ccc2oc(CC(C)(C)C)nc2c1)c1snc(C)c1Cl [15(D3)] | 25 | 27 | −14 | 55 | – | 100 | 0 (0 indicates less than 40% mortality) | 0 (0 indicates less than 40% mortality) | 99 | – | 70
6 | CCOCN(C(=O)Cc1ccc2oc(CC(C)(C)C)nc2c1)c1snc(C)c1Cl [15(L3)] | 17 | 20 | −21 | 100 | – | 99 | 0 (0 indicates less than 40% mortality) | 9 (9 indicates 80-100% mortality) | 97 | – | 40
7 | Cc1nsc(N(C(=O)Cc2ccc3oc(CC(C)(C)C)nc3c2)C(C)C)c1Cl [15(N3)] | 3 | 13 | 3 | 8 | – | 87 | 0 (0 indicates less than 40% mortality) | 0 (0 indicates less than 40% mortality) | 3 | – | −2
8 | Cc1nsc(NC(=O)Cc2ccc3oc(C4CCCC4)nc3c2)c1Cl [28(A3)] | 86 | 81 | 53 | 46 | 0 | 9 | 0 (0 indicates less than 40% mortality) | 5 (5 indicates 40-79% mortality) | 100 | – | 20
9 | Cc1nsc(NC(=O)Cc2ccc3oc(CC4CC4)nc3c2)c1Cl [41(A3)] | 98 | 33 | 50 | 59 | – | 91 | 0 (0 indicates less than 40% mortality) | 0 (0 indicates less than 40% mortality) | 100 | – | 77
10 | Cc1nsc(NC(=O)Cc2ccc3oc(CF)nc3c2)c1Cl [73(A3)] | 100 | 100 | – | 93 | – | 93 | 0 (0 indicates less than 40% mortality) | 0 (0 indicates less than 40% mortality) | 100 | 0 | 57
11 | Cc1nsc(NC(=O)Cc2ccc3oc(C(F)(F)C(F)(F)C(F)(F)F)nc3c2)c1Cl [80(A3)] | 100 | 91 | −8 | 99 | – | 100 | 0 (0 indicates less than 40% mortality) | 0 (0 indicates less than 40% mortality) | 45 | – | −2
12 | Cc1nsc(NC(=O)Cc2ccc3oc(C(C)(C)CCl)nc3c2)c1Cl [98(A3)] | 98 | 81 | 96 | 98 | 99 | 100 | 0 (0 indicates less than 40% mortality) | 5 (5 indicates 40-79% mortality) | 100 | – | 30
13 | Cc1nsc(NC(=O)Cc2ccc3oc(CC#N)nc3c2)c1Cl [113(A3)] | 41 | 28 | 8 | 5 | – | 21 | 0 (0 indicates less than 40% mortality) | 0 (0 indicates less than 40% mortality) | 38 | – | 20
14 | CSCCc1nc2cc(CC(=O)Nc3snc(C)c3Cl)ccc2o1 [172(A3)] | 96 | 19 | 69 | 40 | 44 | 36 | 5 (5 indicates 40-79% mortality) | 5 (5 indicates 40-79% mortality) | 100 | – | 10
15 | Cc1nsc(NC(=O)Cc2ccc3oc(NC(C)(C)C)nc3c2)c1Cl [183(A3)] | 99 | 99 | 98 | 99 | – | 98 | 0 (0 indicates less than 40% mortality) | 0 (0 indicates less than 40% mortality) | 100 | – | 19
16 | Cc1nsc(NC(=O)Cc2ccc3oc(N4CCOCC4)nc3c2)c1Cl [191(A3)] | 99 | 92 | 10 | 94 | – | 100 | 9 (9 indicates 80-100% mortality) | 5 (5 indicates 40-79% mortality) | 92 | – | 36
17 | COc1nc2cc(CC(=O)Nc3snc(C)c3Cl)ccc2o1 [203(A3)] | 100 | 96 | 65 | 98 | – | 69 | 0 (0 indicates less than 40% mortality) | 9 (9 indicates 80-100% mortality) | 85 | – | −3
18 | CCOc1nc2cc(CC(=O)Nc3snc(C)c3Cl)ccc2o1 [204(A3)] | 99 | 96 | 22 | 87 | – | 81 | 0 (0 indicates less than 40% mortality) | 9 (9 indicates 80-100% mortality) | 100 | – | 67
19 | COC(=O)CSc1nc2cc(CC(=O)Nc3snc(C)c3Cl)ccc2o1 [229(A3)] | 6 | 55 | 10 | 21 | – | −9 | 0 (0 indicates less than 40% mortality) | 0 (0 indicates less than 40% mortality) | 92 | – | 2
20 | Cc1nsc(NC(=O)Cc2ccc3oc(-c4sccc4Cl)nc3c2)c1Cl [331(A3)] | 95 | 81 | 5 | 33 | 49 | 76 | – | 0 (0 indicates less than 40% mortality) | – | – | 17
